# Patent US4198504A, “[3-(Pyridinium)-7-(naphthyiridinyl carbonylamino)acetamido]cephalosporanic acid derivatives” (Bristol-Myers Company, priority 1978, dated 1980)
# Tests used:
# [1] = system: E. coli (9), Klebsiella sp. (2), Pr. mirabilis (1), Sal. enteritidis (1); experiment: In vitro MIC, serial two-fold agar dilution, primary evaluation Gn-I (E. coli, Klebsiella sp., Pr. mirabilis, Sal. enteritidis); assay type: cell-based; settings: CBPC = 100%; geometric mean of MICs; Mueller-Hinton agar
# Method: (§1) Minimun inhibitory concentrations (MIC) were determined by the serial two-fold agar dilution method using Steers' apparatus on Mueller-Hinton agar plate against 31 test organisms for the primary screening and also against 64 strains of Pseudomonas aeruginosa for the secondary evaluation. The results are shown in Table 1 in terms of relative activity with respect to the standard compound CBPC (carbenicillin) which was set at 100%. In each group the calculation was based on the geometric mean of the observed MICs.
# GnI = E. coli (9), Klebsiella sp. (2), Pr. mirabilis (1), Sal.
# Pseudomonas aeruginosa = experiment: In vitro MIC, serial two-fold agar dilution, secondary evaluation against Pseudomonas aeruginosa strains; assay type: cell-based; settings: CBPC = 100%; geometric mean of MICs; 61-64 strains
# Method: as §1
# Ps. aeruginosa = experiment: In vitro MIC, serial two-fold agar dilution, primary evaluation Ps (6 strains); assay type: cell-based; settings: CBPC = 100%; geometric mean of MICs; Mueller-Hinton agar
# Method: as §1
# Ps. = Ps. aeruginosa (6).
# S. aureus = experiment: In vitro MIC, serial two-fold agar dilution, primary evaluation Gp (S. aureus, 6 strains); assay type: cell-based; settings: CBPC = 100%; geometric mean of MICs; Mueller-Hinton agar
# Method: as §1
# *GP = S. aureus (6 strains);
# [2] = system: Ent. cloacae (3), Pr. vulgaris (1), Pr. morganii (1), S. marcescen (1); experiment: In vitro MIC, serial two-fold agar dilution, primary evaluation Gn-II (Ent. cloacae, Pr. vulgaris, Pr. morganii, S. marcescens); assay type: cell-based; settings: CBPC = 100%; geometric mean of MICs; Mueller-Hinton agar
# Method: as §1
# GnII = Ent. cloacae (3), Pr. vulgaris (1), Pr. morganii (1), S. marcescen
# [3] = system: Pseudomonas aeruginosa A9843; experiment: In vivo efficacy, experimental infection in mice, intramuscular treatment, Pseudomonas aeruginosa A9843; parameters: species or system Pseudomonas aeruginosa (infected mice); settings: A9843, im, 120 h, I.M., 100×LD50 challenge i.p., 5 days, read-out: PD50 Pseudomonas aeruginosa A9843
# Method: (§2) The in vivo efficacy was evaluated by intramuscular treatment against three kinds of experimental infection in mice.
# (§3) The in vivo tests were carried out using the following three pathogenic organisms:
# Pseudomonas aeruginosa A9843
# (§4) Mice were challenged intraperitoneally with approximately a 100×LD50 dose of the pathogens in a 5% mucin suspension. The mice were treated with test compound by I.M. route immediately after the bacterial challenge.
# [4] = Antibiotic blood levels in mice following intramuscular administration (paper disc-agar diffusion, Escherichia coli NIHJ as assay organism); assay type: in vivo; settings: mouse, im, I.M., 20 mg./kg.; for half-life: read-out: Blood level, Half-life; for Cmax: read-out: Blood level, Peak Concentration
# Method: Antibiotic blood levels were determined in mice following intramuscular administration of the test compounds at 20 mg./kg. The blood samples were collected from the orbital sinuses into heparinized capillary tubes at 15, 30, 60 and 120 minutes after administration. The antibiotic concentration was determined by the paper disc-agar diffusion method using Escherichia coli NIHJ as the assay organism.
# Escherichia coli Juhl = experiment: In vivo efficacy, experimental infection in mice, intramuscular treatment, Escherichia coli Juhl; parameters: species or system Escherichia coli (infected mice); settings: im, 120 h, I.M., 100×LD50 challenge i.p., 5 days, read-out: PD50 Escherichia coli Juhl
# Method: as §2, §3, §4
Structure (SMILES),"In vitro relative activity, primary evaluation Gn-I (13) [1] [%]","In vitro relative activity, secondary, Pseudomonas aeruginosa (61-64) (Pseudomonas aeruginosa) [%]","In vitro relative activity, primary evaluation Ps (6) (Ps. aeruginosa) [%]","In vitro relative activity, primary evaluation Gp (6) (S. aureus) [%]","In vitro relative activity, primary evaluation Gn-II (6) [2] [%]",ED50 [3] [mg/kg],half-life [4] [min],Cmax [4] [ng/mL],ED50 (Escherichia coli Juhl) [mg/kg]
"O=C([O-])C1=C(C[n+]2ccc(C(=O)O)c(C(=O)O)c2)CSC2C(NC(=O)[C@H](NC(=O)c3cnc4cccnc4c3O)c3ccc(O)cc3)C(=O)N12 (stereo partly drawn) [BB-S586, 7-[D-α-(4-Hydroxy-1,5-naphthyridine-3-carboxamido)-α-(4-hydroxyphenyl)acetamido]-3-(3,4-dicarboxypyridinium)methyl-3-cephem-4-carboxylate]",88,351,362,6,11,,,,
"O=C([O-])C1=C(C[n+]2cccc(S(=O)(=O)O)c2)CSC2C(NC(=O)[C@H](NC(=O)c3cnc4cccnc4c3O)c3ccc(O)c(Cl)c3)C(=O)N12 (stereo partly drawn) [BB-S601, 7-[D-α-(4-Hydroxy-1,5-naphthyridine-3-carboxamido)-α-(3-chloro-4-hydroxyphenyl)acetamido]-3-(3-sulfopyridinium)methyl-3-cephem-4-carboxylate]",107,2490,3200,79,25,4.4,70,10000,
O=C(O)CCc1ccc[n+](CC2=C(C(=O)[O-])N3C(=O)C(NC(=O)[C@H](NC(=O)c4cnc5cccnc5c4O)c4ccc(O)cc4)C3SC2)c1 (some centres unmarked) [BB-S619],88,1600,725,31,18,4.6,55,10000,3.2
"O=C([O-])C1=C(C[n+]2cccc(CCS(=O)(=O)O)c2)CSC2C(NC(=O)[C@H](NC(=O)c3cnc4cccnc4c3O)c3ccc(O)cc3)C(=O)N12 (stereo partly drawn) [BB-S620, 7-[D-α-(4-Hydroxy-1,5-naphthyridine-3-carboxamido)-α-(4-hydroxyphenyl)acetamido]-3-[3-(2-sulfoethyl)pyridinium]methyl 3-cephem-4-carboxylate]",60,1800,800,28,14,6.25,40,12500,3.2
"O=C(O)CSc1cc[n+](CC2=C(C(=O)[O-])N3C(=O)C(NC(=O)[C@H](NC(=O)c4cnc5cccnc5c4O)c4ccc(O)c(Cl)c4)C3SC2)cc1 (stereo partly drawn) [BB-S621, 7-[D-α-(4-Hydroxy-1,5-naphthyridine-3-carboxamido)-α-(3-chloro-4-hydroxyphenyl)acetamido]-3-[4-(carboxymethylthio)-pyridinium]methyl-3-cephem-4-carboxylate]",121,1400,800,20,18,4.6,54,10000,2.4
"O=C([O-])C1=C(C[n+]2cccc(C(=O)O)c2)CSC2C(NC(=O)[C@H](NC(=O)c3cnc4cccnc4c3O)c3ccsc3)C(=O)N12 (stereo partly drawn) [BB-S624, 7-[D-α-(4-Hydroxy-1,5-naphthyridine-3-carboxamido)-α-(3-thienyl)acetamido]-3-(3-carboxypyridinium)methyl-3-cephem-4-carboxylate]",47,413,328,79,10,20,50,9500,
"O=C([O-])C1=C(C[n+]2cccc(S(=O)(=O)O)c2)CSC2C(NC(=O)[C@H](NC(=O)c3cnc4cccnc4c3O)c3ccsc3)C(=O)N12 (stereo partly drawn) [BB-S625, 7-[D-α-(4-Hydroxy-1.5-naphthyridine-3-carboxamido)-α-(3-thienyl)acetamido]-3-(3-sulfopyridinium)methyl-3-cephem-4-carboxylate]",32,400,200,50,7,36,54,10000,
"O=C(O)C=Cc1ccc[n+](CC2=C(C(=O)[O-])N3C(=O)C(NC(=O)[C@H](NC(=O)c4cnc5cccnc5c4O)c4ccsc4)C3SC2)c1 (stereo partly drawn) [BB-S626, 7-[D-α-(4-Hydroxy-1,5-naphthyridine-3-carboxamido)-α-(3-thienyl)acetamido]-3-[3-(2-carboxyvinyl)pyridinium]methyl-3-cephem-4-carboxylate]",41,460,231,45,11,30,42,8800,
"O=C(O)CSc1ccc[n+](CC2=C(C(=O)[O-])N3C(=O)C(NC(=O)[C@H](NC(=O)c4cnc5cccnc5c4O)c4ccc(O)cc4)C3SC2)c1 (stereo partly drawn) [BB-S636, 7-[D-α-(4-Hydroxy-1,5-naphthyridine-3-carboxamido)-α-(4-hydroxyphenyl)acetamido]-3-(3-carboxymethylthiopyridinium)-methyl-3-cephem-4-carboxylate]",242,,7070,71,50,,,,
"O=C(O)CSc1ccc[n+](CC2=C(C(=O)[O-])N3C(=O)C(NC(=O)[C@H](NC(=O)c4cnc5cccnc5c4O)c4ccc(O)c(Cl)c4)C3SC2)c1 (stereo partly drawn) [BB-S637, 7-[D-α-(4-Hydroxy-1,5-naphthyridine-3-carboxamido)-α-(3-chloro-4-hydroxyphenyl)acetamido]-3-(3-carboxymethylthiopyridinium)methyl-3-cephem-4-carboxylate]",113,,3530,71,25,,,,
"O=C(O)CSc1ccc[n+](CC2=C(C(=O)[O-])N3C(=O)C(NC(=O)[C@H](NC(=O)c4cnc5cccnc5c4O)c4ccc(O)c(O)c4)C3SC2)c1 (stereo partly drawn) [BB-S638, 7-[D-α-(4-Hydroxy-1,5-naphthyridine-3-carboxamido)-α-(3,4-dihydroxyphenyl)acetamido]-3-(3-carboxymethylthiopyridinium)-methyl-3-cephem-4-carboxylate]",69,,2380,8,8,,,,
"O=C(O)CSc1cc[n+](CC2=C(C(=O)[O-])N3C(=O)C(NC(=O)[C@H](NC(=O)c4cnc5cccnc5c4O)c4ccc(O)c(O)c4)C3SC2)cc1 (stereo partly drawn) [BB-S639, 7-[D-α-(4-Hydroxy-1,5-naphthyridine-3-carboxamido)-α-(3,4-dihydroxyphenyl)acetamido]-3-(4-carboxymethylthiopyridinium)-methyl-3-cephem-4-carboxylate]",242,,4310,20,35,,,,
